Assay results from patent US9096615B2, “Bridged bicyclic amino thiazine dioxide compounds as inhibitors of beta-secretase and methods of use thereof” (AMGEN INC., priority 2013, dated 2015).

Columns and labels:
[1] = biological target: T1, human Bace2 protein (Homo sapiens, UniProt Q9Y5Z0); test: In vitro enzymatic BACE2 FRET assay; assay type: biochemical; settings: average IC50; read-out: BACE2 Enzyme assay IC50
T1 construct: V5 (C); 6-His (C)
T1 sequence (Q9Y5Z0 63-518): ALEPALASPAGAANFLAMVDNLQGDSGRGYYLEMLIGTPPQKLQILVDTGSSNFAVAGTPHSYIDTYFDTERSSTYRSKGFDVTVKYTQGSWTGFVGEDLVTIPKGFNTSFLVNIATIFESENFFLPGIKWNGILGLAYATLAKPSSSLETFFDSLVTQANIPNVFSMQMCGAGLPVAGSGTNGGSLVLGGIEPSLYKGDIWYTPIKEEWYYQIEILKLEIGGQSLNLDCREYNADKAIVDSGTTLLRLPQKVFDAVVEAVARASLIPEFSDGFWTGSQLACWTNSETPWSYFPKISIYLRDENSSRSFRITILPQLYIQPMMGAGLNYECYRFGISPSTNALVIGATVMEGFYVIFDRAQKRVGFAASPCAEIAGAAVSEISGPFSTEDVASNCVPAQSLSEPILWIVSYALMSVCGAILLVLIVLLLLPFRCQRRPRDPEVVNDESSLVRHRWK
How it was run: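 Human Bace2 with C-terminal V5/6-His tag (0.2 nM) pre-incubated 1 h with inhibitor in 0.05 M acetate pH 4.2, 10% DMSO, 100 uM genapol; reaction started with 50 nM FRET peptide substrate, run 1 h. Stopped with Tris to neutral pH; fluorescence increase from substrate cleavage measured.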

[2] = system: Aβ40 in conditioned medium of cells stably expressing Amyloid Precursor Protein (APP); test: In vitro BACE cell-based assay (HEK cell assay, Aβ40 sandwich ELISA); settings: Homo sapiens, HEK293; average IC50; read-out: BACE1 cell assay IC50
How it was run: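 APP-stable cells were cultured 24 h at 37 °C, then given compound as 10-point dose-response (top 100 μM or 10 μM; 0.1% DMSO final) for 24 h. Aβ40 in conditioned medium was measured by sandwich ELISA (pAb40 capture, biotinylated 6E10 detection, Eu time-resolved fluorescence). IC50 from percent inhibition versus concentration.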

[3] = biological target: BACE1 (Homo sapiens, UniProt P56817); test: In vitro enzymatic BACE FRET assay; assay type: biochemical; settings: average IC50; read-out: BACE1 Enzyme assay IC50
How it was run: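 BACE (0.2 nM) pre-incubated 1 h with serially diluted inhibitor in 0.05 M acetate pH 4.2, 10% DMSO, 100 uM genapol; 50 nM FRET peptide substrate added, 1 h incubation. Stopped with Tris to neutral pH; fluorescence read (ex 488, […]).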

Chain of BACE1 (P56817 46-501, species assumed): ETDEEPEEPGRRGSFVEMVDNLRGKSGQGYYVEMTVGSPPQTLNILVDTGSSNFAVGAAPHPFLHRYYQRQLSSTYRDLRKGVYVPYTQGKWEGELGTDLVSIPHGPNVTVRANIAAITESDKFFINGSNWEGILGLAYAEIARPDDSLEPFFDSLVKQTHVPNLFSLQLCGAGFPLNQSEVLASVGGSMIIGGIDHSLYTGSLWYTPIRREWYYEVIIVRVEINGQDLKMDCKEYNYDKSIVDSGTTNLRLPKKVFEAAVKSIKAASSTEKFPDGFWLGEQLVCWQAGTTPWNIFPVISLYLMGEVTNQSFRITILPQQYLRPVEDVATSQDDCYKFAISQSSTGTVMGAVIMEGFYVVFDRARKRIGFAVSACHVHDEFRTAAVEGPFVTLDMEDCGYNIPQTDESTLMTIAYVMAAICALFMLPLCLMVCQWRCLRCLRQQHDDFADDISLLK

Structure (SMILES): C[C@]1(c2cc(Nc3ncnc4cc(C(F)(F)F)cnc34)ccc2F)N=C(N)[C@@]2(C)CC[C@@H]1S2(=O)=O [Example 106, N-(3-((1S,2R,5R)-4-amino-2,5-dimethyl-8,8-dioxido-8-thia-3-azabicyclo[3.2.1]oct-3-en-2-yl)-4-fluorophenyl)-7-(trifluoromethyl)pyrido[3,2-d]pyrimidin-4-amine]
- IC50 [1]: 67 nM
- IC50 [2]: 6 nM
- IC50 [3]: 11 nM

Structure (SMILES): COc1cnc2c(Nc3ccc(F)c([C@@]4(C)N=C(N)[C@@]5(C)CC[C@@H]4S5(=O)=O)c3)ncnc2c1 [Example 132, N-(3-((1S,2R,5R)-4-amino-2,5-dimethyl-8,8-dioxido-8-thia-3-azabicyclo[3.2.1]oct-3-en-2-yl)-4-fluorophenyl)-7-methoxypyrido[3,2-d]pyrimidin-4-amine]
- IC50 [1]: 51 nM
- IC50 [2]: 3 nM
- IC50 [3]: 6 nM

Structure (SMILES): C[C@]1(c2cc(Nc3nccc4nc(OCc5ncco5)cnc34)ccc2F)N=C(N)[C@@]2(C)CC[C@@H]1S2(=O)=O [Example 140, N-(3-((1S,2R,5R)-4-amino-2,5-dimethyl-8,8-dioxido-8-thia-3-azabicyclo[3.2.1]oct-3-en-2-yl)-4-fluorophenyl)-2-(1,3-oxazol-2-ylmethoxy)pyrido[3,4-b]pyrazin-5-amine]
- IC50 [1]: 20 nM
- IC50 [2]: 0.4 nM
- IC50 [3]: 1 nM
